Experimental data from publication PMC12257413, “Discovery of a Novel sp^3‑Rich M1 Positive Allosteric Modulators (PAMs) Chemotype via Scaffold Hopping” (ACS Medicinal Chemistry Letters, 2025).

Experiments:
[1] = Intrinsic clearance in human hepatic microsomes, predicted hepatic clearance; format: in vitro ADME; conditions: predicted hepatic clearance from human hepatic microsomes
Procedure: A similar approach was used to determine the degree of brain homogenate binding, which employed the same methodology and procedure with the following modifications: 1) a final compound concentration of 1 μM was used, 2) naïve rat brains were homogenized in DPBS (1:3 composition of brain: DPBS, w/w) using a Mini-Bead Beater™ machine in order to obtain brain homogenate, which was then treated in the same manner as the plasma samples in the previously described plasma protein binding assay. […]
same manner as the plasma samples in the previously described plasma protein binding assay. Fraction unbound for both plasma and brain samples was determined using Equation 4.
Equation 4 Determination of fraction unbound in plasma.
The diluted fraction unbound (fu2) in brain was calculated in the same manner by using brain homogenate rather than plasma. Undiluted fraction unbound for the brain was calculated using Equation 5 […]
Equation 5 Determination of fraction unbound in brain. […]
Human or rat hepatic microsomes (0.5 mg/mL) and 1 µM test compound were incubated in 100 mM potassium phosphate pH 7.4 buffer with 3 mM MgCl 2 at 37 °C with constant shaking. […] The in vitro half-life (1/2, min, Eq. 1), intrinsic clearance (CL int, mL/min/kg, Eq. 2), and subsequent predicted hepatic clearance (CLhep, mL/min/kg, Eq. 3) was determined employing the following equations: […]

[2] = Plasma protein binding by equilibrium dialysis, human plasma; format: in vitro ADME; conditions: fraction unbound in human plasma
Procedure: for 2 seconds (excitation, 480 nm; emission, 530 nm), first add occurred by adding 20 µL of test compound to the cells, and the response was measured for 140 seconds. This is followed by second add; 10 µL (5X) of an EC20 concentration of ACh agonist was added to the cells, and the response of the cells was measured for 125 seconds. Immediately, the third add occurred by adding 12 ul assay buffer or 5X of an EC max concentration of ACh and the response of the cells was measured for 90 seconds. Assay buffer was added to the wells that incubated with compounds followed by EC20 concentration of ACh. […] Calcium fluorescence was recorded as fold over basal fluorescence and raw data were normalized to the maximal response to ACh agonist. Potency (EC50) and maximum response (% ACh Max) for compounds was determined using a four -parameter logist ical equation using GraphPad Prism (La Jolla, CA) or the Dotmatics software platform ( Woburn, MA) : […]
The protein binding of each compound was determined in plasma via equilibrium dialysis employing rapid equilibrium dialysis (RED) plates (ThermoFisher Scientific, Rochester, NY). […]
same manner as the plasma samples in the previously described plasma protein binding assay. Fraction unbound for both plasma and brain samples was determined using Equation 4. […]

SMILES | Human CLHEP [1] | Human fuplasma [2]
Cn1cc(-c2ccc(Cc3cc(C(=O)N[C@H]4CCOC[C@@H]4O)nn3C3CCCC3)cc2)cn1 [17g] | 6.7 mL/min/kg | 0.08
Cn1cc(-c2ccc(Cc3cc(C(=O)N[C@H]4CCCC[C@@H]4O)nn3C3CCCC3)cc2)cn1 [17k] | 14.3 mL/min/kg | 0.01
